Reference: patent US10793543B2, “Selective C-KIT kinase inhibitor” (PRECEDO PHARMACEUTICALS CO., LTD, priority 2016, dated 2020)

What was measured:
[1] = system: Tel-PDGFRα-BaF3 cells (PDGFRα); assay: Cell proliferation, CCK-8, Tel-PDGFRα-BaF3; assay type: cell-based; settings: Mus musculus, 72 hours
From the text: (§1) In addition, in the present example, further uses: mouse P210/BaF3 (stably expressing P210 Bcr-Abl mutant gene), mouse Tel-ABL-BaF3 (stably expressing wild-type ABL kinase), mouse Tel-cKit-BaF3 (stably expressing C-KITwild-type kinase), mouse Tel-cKit/V559D-BaF3 (stably expressing C-KIT V559D mutant kinase), mouse Tel-cKit/V559D/V654A-BaF3 (stably expressing C-KIT V559D/V654A mutant kinase), mouse Tel-cKit/N822K-BaF3 (stably expressing C-KIT N822K mutant kinase), mouse Tel-cKit/V654A-BaF3 (stably expressing C-KIT V654A mutant kinase), mouse Tel-cKit/L567P-BaF3 (stably expressing C-KIT L567P mutant kinase), mouse Tel-cKit/T670I-BaF3 (stably expressing C-KIT T670I mutant kinase), mouse Tel-PDGFRα-BaF3 (stably expressing PDGFRα kinase), mouse Tel-PDGFRβ-BaF3 (stably expressing PDGFRβ kinase), mouse Tel-VEGFR2-BaF3 (stably expressing VEGFR2 kinase), mouse Tel-RET-BaF3 (stably expressing RET kinase). The above cell lines were all constructed by our laboratory according to the following method: the kinase region sequences of human P210 Bcr-Abl, ABL, C-KIT, C-KIT V559D, C-KIT V559D/V654A, C-KIT N822K, C-KIT V654A, C-KIT L567P, C-KIT T670I, PDGFRα, PDGFRβ, VEGFR2, RET were amplified respectively by PCR, inserted respectively into MSCV-Puro vectors harboring N-terminal TEL fragment and/or NPM fragment and/or TPR fragment (Clontech), then the vectors were stably transfected into mouse BaF3 cells by retrovirus methods and growth factor IL-3 was removed, eventually obtaining cell lines that are transferred protein (P210 Bcr-Abl, ABL, C-KIT, C-KIT V559D, C-KIT V559D/V654A, C-KIT N822K, C-KIT V654A, C-KIT L567P, C-KIT T670I, PDGFRα, PDGFRβ, VEGFR2, RET)-dependent.
(§2) The cells were incubated for 72 hours, and then the number of viable cells was quantified with a microplate reader by using CCK-8 Cell Viability Assay Kit (purchased from Bestbio Company, Shanghai, China) (CCK-8 can be reduced by dehydrogenase in living cells to a highly water-soluble yellow formazan product, and the amount of formazan produced is proportional to the number of living cells).

GIST-T1 cells = assay: Cancer cell proliferation, CCK-8, GIST-T1; assay type: cell-based; settings: Homo sapiens, GISTT1, GIST-T1, KIT WT, 72 hours
From the text: (§3) In the present example, the following cells were used: chronic myelogenous leukemia cells K562 (expressing P210 Bcr-Abl mutant gene), human megakaryocytic leukemia cells MEG-01 (expressing P210 Bcr-Abl mutant gene), human peripheral blood basophilic leukemia cells Ku812 (expressing Bcr-Abl mutant gene) (all above cells purchased from ATCC, USA), human gastrointestinal stromal tumor cell lines GIST-T1 cells (expressing wild-type C-KIT gene) (purchased from Cosmo Bio Co., Ltd., Japan), human gastrointestinal stromal tumor cell lines GIST-882 cells (expressing wild-type C-KIT gene) (presented by the Professor Gray Lab, Dana-Farber Cancer Institute, Harvard University, USA), mouse pro-B cells BaF3 (purchased from ATCC, USA).
as §2

[2] = system: Tel-cKit/T670I-BaF3 cells (KIT T670I); assay: Cell proliferation, CCK-8, Tel-cKit/T670I-BaF3; assay type: cell-based; settings: Mus musculus, 72 hours
From the text: as §1, §2

[3] = system: Tel-cKit/V559D-BaF3 cells (KIT V559D); assay: Cell proliferation, CCK-8, Tel-cKit/V559D-BaF3; assay type: cell-based; settings: Mus musculus, 72 hours
From the text: as §1, §2

[4] = system: cells expressing wild-type C-KIT kinase; assay: Cell proliferation, C-KIT cells; assay type: cell-based; settings: cells expressing C-KIT kinase, summary of Table 2
From the text: as §3, §1, §2

BaF3 cells = assay: Cell proliferation, CCK-8, parental BaF3; assay type: cell-based; settings: Mus musculus, 72 hours
From the text: as §3, §2

[5] = system: Tel-PDGFRβ-BaF3 cells (PDGFRβ); assay: Cell proliferation, CCK-8, Tel-PDGFRβ-BaF3; assay type: cell-based; settings: Mus musculus, 72 hours
From the text: as §1, §2

[6] = system: Tel-cKit/V654A-BaF3 cells (KIT V654A); assay: Cell proliferation, CCK-8, Tel-cKit/V654A-BaF3; assay type: cell-based; settings: Mus musculus, 72 hours
From the text: as §1, §2

[7] = system: Tel-RET-BaF3 cells (RET WT); assay: Cell proliferation, CCK-8, Tel-RET-BaF3; assay type: cell-based; settings: Mus musculus, 72 hours
From the text: as §1, §2

[8] = system: Tel-VEGFR2-BaF3 cells (VEGFR2); assay: Cell proliferation, CCK-8, Tel-VEGFR2-BaF3; assay type: cell-based; settings: Mus musculus, Tel-VEGFR2-BaF3, VEGFR2, 72 hours
From the text: as §1, §2

[9] = system: Tel-cKit/N822K-BaF3 cells (KIT N822K); assay: Cell proliferation, CCK-8, Tel-cKit/N822K-BaF3; assay type: cell-based; settings: Mus musculus, 72 hours
From the text: as §1, §2

[10] = system: Tel-cKit/V559D/V654A-BaF3 cells (KIT V559D/V654A); assay: Cell proliferation, CCK-8, Tel-cKit/V559D/V654A-BaF3; assay type: cell-based; settings: Mus musculus, 72 hours
From the text: as §1, §2

[11] = system: Tel-cKit-BaF3 cells (KIT WT); assay: Cell proliferation, CCK-8, Tel-cKit-BaF3; assay type: cell-based; settings: Mus musculus, 72 hours
From the text: as §1, §2

[12] = system: gastrointestinal stromal tumor cell lines GIST-T1; assay: Mouse tumor model of GIST-T1 cells; assay type: in vivo; settings: 100 mg/kg oral daily, Day 28 after administration
Method: (§4) 1. 4-6 week-old Bal b/c female mice were purchased from Shanghai SLAC Experimental Animal Co., Ltd., and were raised in a SPF-level laboratory. Drinking water and padding were both subjected to aseptic processing via high-pressure disinfection, and all operations of the mice were conducted under aseptic conditions;
(§5) 2. About 5×10^6 gastrointestinal stromal tumor cell lines GIST-T1 or GIST-882 (purchased from ATCC) were respectively injected subcutaneously at left side back of all mice at Day 0;
(§6) 5. Mice were sacrificed on Day 36 (for GIST-882 mouse model) or Day 43 (GIST-T1 mouse model) and subcutaneous tumors were taken out and weighed for comparison;
(§7) 6. Tumor tissue specimens were prepared into protein lysate samples for further usage;
(§8) 7. Growth trend of subcutaneous tumors from Day 16 to Day 43 was derived, and tumor volume was calculated as length×width×width/2 mm^3.

[13] = system: gastrointestinal stromal tumor cell lines GIST-882; assay: Mouse tumor model of GIST-882 cells; assay type: in vivo; settings: GIST-882 model, 100 mg/kg oral daily, Day 21 after administration
Method: as §4, §5, §6, §7, §8

GIST-882 cells = assay: Cancer cell proliferation, CCK-8, GIST-882; assay type: cell-based; settings: Homo sapiens, GIST882, GIST-882, KIT WT, 72 hours
From the text: as §3, §2

[14] = system: Tel-cKit/L576P-BaF3 cells (KIT L576P); assay: Cell proliferation, CCK-8, Tel-cKit/L576P-BaF3; assay type: cell-based; settings: Mus musculus, 72 hours
From the text: as §1, §2

[15] = system: P210/BaF3 cells (P210 Bcr-Abl); assay: Cell proliferation, CCK-8, P210/BaF3; assay type: cell-based; settings: Mus musculus, BaF3, 72 h
From the text: (§9) In addition, in the present example, further uses: mouse P210/BaF3 (stably expressing P210 Bcr-Abl mutant gene), mouse Tel-ABL-BaF3 (stably expressing wild-type ABL kinase), mouse Tel-cKit-BaF3 (stably expressing C-KITwild-type kinase), mouse Tel-cKit/V559D-BaF3 (stably expressing C-KIT V559D mutant kinase), mouse Tel-cKit/V559D/V654A-BaF3 (stably expressing C-KIT V559D/V654A mutant kinase), mouse Tel-cKit/N822K-BaF3 (stably expressing C-KIT N822K mutant kinase), mouse Tel-cKit/V654A-BaF3 (stably expressing C-KIT V654A mutant kinase), mouse Tel-cKit/L567P-BaF3 (stably expressing C-KIT L567P mutant kinase), mouse Tel-cKit/T670I-BaF3 (stably expressing C-KIT T670I mutant kinase), mouse Tel-PDGFRα-BaF3 (stably expressing PDGFRα kinase), mouse Tel-PDGFRβ-BaF3 (stably expressing PDGFRβ kinase), mouse Tel-VEGFR2-BaF3 (stably expressing VEGFR2 kinase), mouse Tel-RET-BaF3 (stably expressing RET kinase). […]
as §2

[16] = system: MEG-01 cells (P210 Bcr-Abl); assay: Cancer cell proliferation, CCK-8, MEG-01; assay type: cell-based; settings: Homo sapiens, MEG-01, 72 h
From the text: as §3, §2

Ku812 cells (Bcr-Abl) = assay: Cancer cell proliferation, CCK-8, Ku812; assay type: cell-based; settings: Homo sapiens, KU812, 72 h
From the text: as §3, §2

[17] = system: Tel-ABL-BaF3 cells (ABL WT); assay: Cell proliferation, CCK-8, Tel-ABL-BaF3; assay type: cell-based; settings: Mus musculus, 72 h
From the text: as §9, §2

[18] = system: K562 cells (P210 Bcr-Abl); assay: Cancer cell proliferation, CCK-8, K562; assay type: cell-based; settings: Homo sapiens, K562, 72 h
From the text: as §3, §2

For `C=CC(=O)N1CCC(Oc2cc(NC(=O)c3ccc(CN4CCN(C)CC4)c(C(F)(F)F)c3)ccc2C)CC1` [Compound C], which GI50 [1] is on record?
Its GI50 is 36 nM.

And the GI50 (GIST-T1 cells)?
Its GI50 is 30 nM.

And the GI50 [2]?
The GI50 was 952 nM.

And the GI50 [3]?
The GI50 was 36 nM.

What about the GI50 [4] of the same compound?
Its GI50 is less than 500 nM.

What about the GI50 (BaF3 cells) of the same compound?
Its GI50 is greater than 10000 nM.

What about the GI50 [5] of the same compound?
The GI50 was 42 nM.

What about the GI50 [6] of the same compound?
The GI50 was 401 nM.

What about the GI50 [7] of the same compound?
The GI50 was 490 nM.

What about the GI50 [8] of the same compound?
Its GI50 is 5 nM.

And the GI50 [9]?
The GI50 was 380 nM.

What does the source list for `Cc1ccc(NC(=O)c2ccc(CN3CCN(C)CC3)cc2)cc1Nc1nccc(-c2cccnc2)n1` [imatinib]?
GI50 [10]: 3000 nM; GI50 [11]: 412 nM; tumor inhibition rate [12]: 72.4%; GI50 (GIST-T1 cells): 8 nM; GI50 [2]: 6670 nM; GI50 [3]: 39 nM; GI50 [4]: < 500 nM; GI50 (BaF3 cells): > 10000 nM; tumor inhibition rate [13]: 49%; GI50 [6]: 2490 nM; GI50 [7]: 6310 nM; GI50 [8]: > 10000 nM; GI50 [9]: 1290 nM; GI50 (GIST-882 cells): 14 nM; GI50 [14]: 102 nM

`Cc1cn(-c2cc(NC(=O)c3ccc(C)c(Nc4nccc(-c5cccnc5)n4)c3)cc(C(F)(F)F)c2)cn1` [nilotinib] was tested. Which GI50 [10] did it give?
The GI50 was 648 nM.

What about the GI50 [11] of the same compound?
The GI50 was 47 nM.

And the GI50 [1]?
Its GI50 is 32 nM.

And the GI50 (GIST-T1 cells)?
The GI50 was 6 nM.

What about the GI50 [2] of the same compound?
Its GI50 is 2860 nM.

And the GI50 [3]?
The GI50 was 22 nM.

And the GI50 [15]?
Its GI50 is 12.5 nM.

And the GI50 [4]?
The GI50 was less than 500 nM.

And the GI50 (BaF3 cells)?
The GI50 was greater than 10000 nM.

What about the GI50 [16] of the same compound?
Its GI50 is 0.4 nM.

And the GI50 [5]?
The GI50 was 32 nM.

What about the GI50 [6] of the same compound?
The GI50 was 365 nM.

And the GI50 [7]?
The GI50 was 2660 nM.

What about the GI50 (Ku812 cells (Bcr-Abl)) of the same compound?
The GI50 was 1.2 nM.

And the GI50 [17]?
Its GI50 is 26 nM.

What about the GI50 [8] of the same compound?
The GI50 was 5380 nM.

What about the GI50 [9] of the same compound?
The GI50 was 166 nM.

What about the GI50 (GIST-882 cells) of the same compound?
Its GI50 is 17 nM.

What about the GI50 [14] of the same compound?
The GI50 was 81 nM.

And the GI50 [18]?
Its GI50 is 3 nM.
